Experiments:
in vivo = conditions: rat, po
seizure spread = experiment: maximal electroshock (MES) test; conditions: for ED50: Rattus norvegicus, po, read-out: MES anticonvulsant activity (ED50)
seizure threshold = experiment: subcutaneous metrazol (sc Met) test; conditions: Rattus norvegicus, po, read-out: sc Met anticonvulsant activity (ED50)
offspring = conditions: cited from earlier work

Structure (SMILES) | TD50 (in vivo) [mg/kg] | potency in MES test relative to VPA (seizure spread; MES test, vs VPA) | ED50 (seizure spread) [mg/kg] | PI-MES (protective index): TD50/ED50 (seizure spread; oral, rats, MES) | ED50 (seizure threshold) [mg/kg] | potency in MES test relative to (R)-HP-VPD (seizure spread; MES test, vs (R)-HP-VPD (II)) | SI (stereoselective index) = (R)-HP-VPD/(S)-HP-VPD (seizure spread; MES, oral, rats) | teratogenicity (offspring)
CCCC(CCC)C(=O)NCC(C)O (racemic) [HP-VPD (rac)] | > 250 | five times more potent than VPA | 92 | > 2.7 | > 250 | – | – | –
CCCC(CCC)C(=O)NC[C@H](C)O [(S)-HP-VPD, N-(2-OH-propyl)valpromide] | > 650 | – | 48 | > 13.5 | – | more than two times more potent than (R)-HP-VPD | 2.4 | –
CCCC(CCC)C(=O)O [VPA, Valproic acid, reference compound] | – | – | 490 | – | 180 | – | – | associated with teragenecity
CCCC(CCC)C(=O)NC[C@@H](C)O [(R)-HP-VPD, N-(2-OH-propyl)valpromide] | > 500 | – | 117 | > 4.3 | – | – | – | –

— patent US6323365A (Yissum Research Development Company of the Hebrew …, priority 2000, dated 2001)
